Laboratory results from US12024502B2, “Biased adrenergic agonists” (University of South Florida, priority 2021, dated 2024).

Experiments:
[1] = tested on: ERK1/2; experiment: ERK1/2 activation immunoblot in the presence of PKA inhibitor H89; format: cell-based, human; conditions: β2AR transfected HEK-293 cells; PKA inhibitor H89 present; vs vehicle control
[2] = tested on: human airway smooth muscle (HASM) cells; experiment: Magnetic twisting cytometry (MTC) of HASM cells: relaxation and desensitization; format: cell-based; conditions: 1.0 mM ALB or 100 mM C1-S as printed, then 10 μM ISO
Procedure: CHW cells were transfected to stably express the human β2AR under G418 selection and maintained in monolayers as previously described. Transient transfections of HEK-293T cells with constructs to express human β-arrestin2-myc, human β-arrestin2-GFP, human β2AR and β2AR-GFP, were performed using Lipofectamine 2000 (Invitrogen), and studied 48 hrs later. CHO cells stably expressing a modified β2AR and a modified β-arrestin2 for the ECA were purchased from DiscoverX. In some experiments, these cells were transiently transfected with 5 μg GRK2 cDNA. Primary HASM cells were derived from donor lungs obtained from the National Disease Exchange Registry and maintained as monolayers, and utilized between passages 3 and 6 for the physiological studies. […]
MTC was used to measure dynamic changes in the cytoskeletal stiffness as a surrogate for agonist-induced single-cell relaxation. […] Forced bead motions were detected optically with a spatial resolution of ˜5 nm, and their changes monitored, in real time, in response to b-agonist (HASM cell relaxation). […] The response to 10 μM isoproterenol (final concentration) added to the media was then determined every 1.3 sec. […] The greatest relaxation change from baseline observed at any point over the time course was utilized to quantify the maximal HASM response to isoproterenol.

Row | SMILES | activation of ERK1/2 [1] | desensitization of β2AR-mediated HASM cell relaxation response to ISO ([2]; 30 min pretreatment) | desensitization of β2AR-mediated HASM cell relaxation response to ISO ([2]; 4 hour pretreatment)
1 | CC(C)(C)NCC(O)c1ccc(O)c(CO)c1 (stereo not shown) [ALB, albuterol] | activation of ERK1/2 | caused desensitization | caused desensitization
2 | CC(C)NCC(O)c1ccc(O)c(O)c1 (stereo not shown) [ISO, isoproterenol] | activation of ERK1/2 |  | 
